Laboratory results published in ChEMBL document CHEMBL1158622, “Discovery of a series of indan carboxylic acid glycogen phosphorylase inhibitors” (Bioorg Med Chem Lett, 2010).
pIC50: −log10 of the molar value. Where “and” joins values, the source holds several entries; their conditions need not be identical. Equal values may be shown once.

Assays:
[1] = biological target: T1, Glycogen phosphorylase, liver form (Homo sapiens, UniProt P06737); assay: Inhibition of human recombinant liver glycogen phosphorylase by multienzyme-coupled reaction
T1 sequence (P06737 whole entry): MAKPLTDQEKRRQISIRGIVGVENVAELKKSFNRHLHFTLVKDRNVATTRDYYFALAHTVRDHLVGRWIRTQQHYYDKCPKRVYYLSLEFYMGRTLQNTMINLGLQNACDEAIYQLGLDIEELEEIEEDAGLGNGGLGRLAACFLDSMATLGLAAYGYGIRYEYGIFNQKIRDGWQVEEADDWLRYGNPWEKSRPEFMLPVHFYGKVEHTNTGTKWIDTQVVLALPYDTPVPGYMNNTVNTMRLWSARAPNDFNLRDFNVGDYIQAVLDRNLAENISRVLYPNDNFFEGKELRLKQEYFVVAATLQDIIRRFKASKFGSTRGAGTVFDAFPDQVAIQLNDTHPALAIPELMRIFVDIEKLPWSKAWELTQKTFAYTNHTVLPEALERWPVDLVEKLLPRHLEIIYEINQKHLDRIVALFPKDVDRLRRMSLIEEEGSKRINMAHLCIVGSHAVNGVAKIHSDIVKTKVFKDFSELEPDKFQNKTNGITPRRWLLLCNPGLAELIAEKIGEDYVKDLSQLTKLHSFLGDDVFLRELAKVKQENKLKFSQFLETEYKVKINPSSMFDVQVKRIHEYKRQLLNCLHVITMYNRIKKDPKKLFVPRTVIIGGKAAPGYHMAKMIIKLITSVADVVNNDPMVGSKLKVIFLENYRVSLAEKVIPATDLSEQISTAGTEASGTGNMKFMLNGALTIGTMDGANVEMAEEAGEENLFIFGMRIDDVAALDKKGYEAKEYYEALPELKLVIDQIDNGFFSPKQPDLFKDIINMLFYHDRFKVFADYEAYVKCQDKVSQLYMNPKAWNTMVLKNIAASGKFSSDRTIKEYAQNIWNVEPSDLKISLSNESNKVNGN

[2] = (§1) Oral bioavailability in rat at 5 mg/kg oral & 2 mg/kg iv dose; type: ADME, organism-based; details: in vivo
CYP1A2 = biological target: T2, CYP1A2 (Homo sapiens, UniProt P05177); assay: Inhibition of CYP1A2 at 10 uM; type: ADME
T2 sequence (P05177 whole entry): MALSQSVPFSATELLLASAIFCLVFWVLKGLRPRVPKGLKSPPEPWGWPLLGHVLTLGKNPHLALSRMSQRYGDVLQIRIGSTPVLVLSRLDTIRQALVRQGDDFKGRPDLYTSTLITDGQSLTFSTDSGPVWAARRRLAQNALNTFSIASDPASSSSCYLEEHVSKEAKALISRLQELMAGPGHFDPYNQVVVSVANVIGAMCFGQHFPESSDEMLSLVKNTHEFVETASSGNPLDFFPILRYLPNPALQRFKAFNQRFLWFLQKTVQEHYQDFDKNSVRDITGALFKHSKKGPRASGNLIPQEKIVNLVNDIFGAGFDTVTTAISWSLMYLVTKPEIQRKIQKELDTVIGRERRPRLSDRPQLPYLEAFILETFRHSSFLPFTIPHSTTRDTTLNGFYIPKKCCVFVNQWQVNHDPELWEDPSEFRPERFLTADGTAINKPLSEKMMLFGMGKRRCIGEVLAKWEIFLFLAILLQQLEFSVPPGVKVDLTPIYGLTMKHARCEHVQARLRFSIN

[3] = Volume of distribution in Wistar rat at […], iv and 11 to 12.2 umol/kg, po; type: ADME, organism-based; details: in vivo
[4] = Oral bioavailability in male Wistar rats at 11 - 12.2 umol/kg oral & 4.3 - 4.9 umol/kg iv dose; type: ADME, organism-based; details: rat, in vivo
CYP2C19 = CYP2C19 (Homo sapiens, UniProt P33261); assay: Inhibition of CYP2C19 at 10 uM; type: ADME
Sequence of CYP2C19 (P33261 whole entry): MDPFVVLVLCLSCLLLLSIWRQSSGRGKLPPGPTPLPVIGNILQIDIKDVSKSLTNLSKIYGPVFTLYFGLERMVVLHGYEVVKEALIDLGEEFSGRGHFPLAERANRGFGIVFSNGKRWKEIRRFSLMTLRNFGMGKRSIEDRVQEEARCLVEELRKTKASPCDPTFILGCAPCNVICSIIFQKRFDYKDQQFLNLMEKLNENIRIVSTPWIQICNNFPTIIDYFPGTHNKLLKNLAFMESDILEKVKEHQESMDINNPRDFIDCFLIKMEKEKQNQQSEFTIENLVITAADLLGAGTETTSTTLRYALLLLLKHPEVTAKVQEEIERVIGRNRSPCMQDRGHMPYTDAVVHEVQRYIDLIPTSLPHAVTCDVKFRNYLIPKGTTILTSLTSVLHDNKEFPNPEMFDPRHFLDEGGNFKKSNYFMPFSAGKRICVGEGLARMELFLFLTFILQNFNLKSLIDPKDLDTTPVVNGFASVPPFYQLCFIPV

[5] = Half life in male Wistar rats at 4.3 - 4.9 umol/kg iv dose (11 - 12.2 umol/kg oral); type: ADME, organism-based; details: rat, in vivo
[6] = biological target: Voltage-gated inwardly rectifying potassium channel KCNH2 (Homo sapiens, UniProt Q12809)
Sequence of Voltage-gated inwardly rectifying potassium channel KCNH2 (Q12809 whole entry): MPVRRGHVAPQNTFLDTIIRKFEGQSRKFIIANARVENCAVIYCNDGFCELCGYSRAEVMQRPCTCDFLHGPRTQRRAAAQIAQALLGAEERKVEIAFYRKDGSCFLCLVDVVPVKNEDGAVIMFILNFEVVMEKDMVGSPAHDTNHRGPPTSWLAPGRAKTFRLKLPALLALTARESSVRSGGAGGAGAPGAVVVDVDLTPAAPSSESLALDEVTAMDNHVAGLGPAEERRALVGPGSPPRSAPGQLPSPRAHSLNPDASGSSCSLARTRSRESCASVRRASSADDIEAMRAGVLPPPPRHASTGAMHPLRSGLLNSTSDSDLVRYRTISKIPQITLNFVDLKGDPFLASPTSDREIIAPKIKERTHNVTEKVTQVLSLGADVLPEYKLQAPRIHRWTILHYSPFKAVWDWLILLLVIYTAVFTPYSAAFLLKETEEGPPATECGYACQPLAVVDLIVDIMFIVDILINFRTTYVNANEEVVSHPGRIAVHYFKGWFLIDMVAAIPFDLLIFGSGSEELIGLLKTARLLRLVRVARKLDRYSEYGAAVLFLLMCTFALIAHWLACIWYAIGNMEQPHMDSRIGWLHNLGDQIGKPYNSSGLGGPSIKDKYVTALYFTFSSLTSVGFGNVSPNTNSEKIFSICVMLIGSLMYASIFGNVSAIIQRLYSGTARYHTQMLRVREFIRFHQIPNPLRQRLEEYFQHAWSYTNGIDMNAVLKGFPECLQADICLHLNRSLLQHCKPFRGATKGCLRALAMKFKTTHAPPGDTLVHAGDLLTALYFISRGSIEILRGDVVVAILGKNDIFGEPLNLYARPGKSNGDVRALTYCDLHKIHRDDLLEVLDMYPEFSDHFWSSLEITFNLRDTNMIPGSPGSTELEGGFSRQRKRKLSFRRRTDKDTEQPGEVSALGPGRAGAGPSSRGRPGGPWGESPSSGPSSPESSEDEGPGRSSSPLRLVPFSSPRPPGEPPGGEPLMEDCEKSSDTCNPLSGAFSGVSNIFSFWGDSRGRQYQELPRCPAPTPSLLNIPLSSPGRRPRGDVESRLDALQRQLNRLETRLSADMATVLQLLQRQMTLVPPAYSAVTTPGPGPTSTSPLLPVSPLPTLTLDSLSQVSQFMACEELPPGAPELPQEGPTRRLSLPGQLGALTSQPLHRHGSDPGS

CYP2D6 = CYP2D6 (Homo sapiens, UniProt P10635); assay: Inhibition of CYP2D6 at 10 uM; type: ADME
Sequence of CYP2D6 (P10635 whole entry): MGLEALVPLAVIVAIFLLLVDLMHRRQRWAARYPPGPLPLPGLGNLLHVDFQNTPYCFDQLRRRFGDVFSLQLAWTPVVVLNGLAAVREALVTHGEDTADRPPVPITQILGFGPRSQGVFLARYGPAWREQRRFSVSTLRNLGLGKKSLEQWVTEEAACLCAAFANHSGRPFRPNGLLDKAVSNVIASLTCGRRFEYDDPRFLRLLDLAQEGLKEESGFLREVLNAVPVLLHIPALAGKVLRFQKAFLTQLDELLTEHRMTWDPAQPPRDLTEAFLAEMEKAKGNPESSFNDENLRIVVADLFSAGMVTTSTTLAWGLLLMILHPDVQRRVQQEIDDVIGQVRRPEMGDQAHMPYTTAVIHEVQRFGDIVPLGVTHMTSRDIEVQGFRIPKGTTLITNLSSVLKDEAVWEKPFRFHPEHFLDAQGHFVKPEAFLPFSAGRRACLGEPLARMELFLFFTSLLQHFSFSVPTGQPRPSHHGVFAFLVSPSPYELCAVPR

CYP3A4 = CYP3A4 (Homo sapiens, UniProt P08684); assay: Inhibition of […] at 10 uM; type: ADME
Sequence of CYP3A4 (P08684 whole entry): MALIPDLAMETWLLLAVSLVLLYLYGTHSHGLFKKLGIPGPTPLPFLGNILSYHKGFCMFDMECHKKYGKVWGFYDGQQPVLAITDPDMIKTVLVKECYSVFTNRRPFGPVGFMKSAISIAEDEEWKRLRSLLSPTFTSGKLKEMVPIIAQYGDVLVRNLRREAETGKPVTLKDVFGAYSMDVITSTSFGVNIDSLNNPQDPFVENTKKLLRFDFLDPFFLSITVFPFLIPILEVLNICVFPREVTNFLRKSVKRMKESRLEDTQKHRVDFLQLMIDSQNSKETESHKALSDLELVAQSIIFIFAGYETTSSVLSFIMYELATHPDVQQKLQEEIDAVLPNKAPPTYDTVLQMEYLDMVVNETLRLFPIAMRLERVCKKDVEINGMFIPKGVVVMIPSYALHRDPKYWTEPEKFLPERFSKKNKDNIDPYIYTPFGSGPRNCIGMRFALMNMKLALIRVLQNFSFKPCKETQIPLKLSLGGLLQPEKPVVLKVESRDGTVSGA

CYP2C9 = CYP2C9 (Homo sapiens, UniProt P11712); assay: Inhibition of CYP2C9 at 10 uM; type: ADME
Sequence of CYP2C9 (P11712 whole entry): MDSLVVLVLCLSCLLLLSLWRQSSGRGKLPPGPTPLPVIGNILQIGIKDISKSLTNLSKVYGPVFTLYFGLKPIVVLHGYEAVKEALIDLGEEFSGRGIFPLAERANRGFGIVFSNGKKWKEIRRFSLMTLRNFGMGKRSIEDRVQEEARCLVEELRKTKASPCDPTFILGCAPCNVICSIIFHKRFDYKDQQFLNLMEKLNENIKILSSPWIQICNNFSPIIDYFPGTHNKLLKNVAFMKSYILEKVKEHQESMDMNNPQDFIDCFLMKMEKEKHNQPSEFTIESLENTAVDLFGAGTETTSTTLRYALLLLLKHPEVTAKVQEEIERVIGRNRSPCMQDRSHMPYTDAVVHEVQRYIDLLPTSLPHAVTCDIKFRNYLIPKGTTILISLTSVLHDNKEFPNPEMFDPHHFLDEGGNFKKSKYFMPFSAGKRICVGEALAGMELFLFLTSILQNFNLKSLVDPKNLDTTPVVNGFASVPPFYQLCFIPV

[7] = Clearance in Wistar rat at […], iv and 11 to 12.2 umol/kg, po; type: ADME, organism-based; details: in vivo
Rattus norvegicus [8] = assay: Antihyperglycemic activity in Zucker fa/fa rat assessed as reduction in glucose level at 17 umol/kg dosed 45 mins prior to glucagon challenge measured after 90 mins; type: functional; design: scale not given: the % may be the effect or the level left
Rattus norvegicus [9] = assay: as §1; type: ADME, organism-based; details: in vivo
Rattus norvegicus [10] = organism: Rattus norvegicus; assay: Free plasma concentration in rat; type: ADME, organism-based; details: in vivo

SMILES	pIC50 [1]	bioavailability [2] [%]	also measured
O=C(O)C[C@@H]1c2ccccc2C[C@H]1NC(=O)c1cc2cc(Cl)sc2[nH]1	7.40	41	
O=C(O)C[C@@H]1c2ccccc2C[C@H]1NC(=O)c1cc2sc(Cl)c(Cl)c2[nH]1	7.74	65	inhibition at 10 µM (CYP1A2): < 50%; Vd [3]: 0.2 L/kg; bioavailability [4]: 65%; inhibition at 10 µM (CYP2C19): < 50%; half-life [5]: 8 h; pIC50 [6]: < 4.52; inhibition at 10 µM (CYP2D6): < 50%; inhibition at 10 µM (CYP3A4): < 50%; inhibition at 10 µM (CYP2C9): < 50%; clearance [7]: 0.23 mL/min/kg
O=C(O)C[C@@H]1c2ccccc2C[C@H]1NC(=O)c1cc2cc(Cl)c(F)cc2[nH]1	7.12	65	
COCC[C@H](C(=O)O)[C@@H]1c2ccccc2C[C@H]1NC(=O)c1cc2sc(Cl)c(Cl)c2[nH]1 [(S)-2-((1R,2R)-2-(2,3-DICHLORO-4H-THIENO[3,2-B]PYRROLE-5-CARBOXAMIDO)-2,3-DIHYDRO-1H-INDEN-1-YL)-4-METHOXYBUTANOIC ACID (DIASTEREOMERIC MIX)]			inhibition at 10 µM (CYP1A2): < 50%; Activity (Rattus norvegicus [8]): 50%; Vd [3]: 0.2 L/kg; bioavailability [4]: 118%; inhibition at 10 µM (CYP2C19): < 50%; half-life [5]: 7 h; inhibition at 10 µM (CYP2D6): < 50%; inhibition at 10 µM (CYP3A4): < 50%; inhibition at 10 µM (CYP2C9): < 50%; F (Rattus norvegicus [9]): 150% and 65%; clearance [7]: 0.4 mL/min/kg
O=C(O)CC(=O)N[C@@H]1c2ccccc2C[C@H]1NC(=O)c1cc2sc(Cl)c(Cl)c2[nH]1	7.25	2	
O=C(O)C[C@@H]1c2ccccc2C[C@H]1NC(=O)c1cc2cc(Cl)ccc2[nH]1	7.24	77	
O=C(O)C[C@@H]1c2ccccc2C[C@H]1NC(=O)c1cc2cc(Cl)ncc2[nH]1	6.59	11	fraction unbound (Rattus norvegicus [10]): 0.01%
O=C(O)CCC[C@@H]1c2ccccc2C[C@H]1NC(=O)c1cc2sc(Cl)c(Cl)c2[nH]1	7.27	118	
O=C(O)CSC[C@@H]1c2ccccc2C[C@H]1NC(=O)c1cc2sc(Cl)c(Cl)c2[nH]1	7.40	23	
O=C(O)CCO[C@@H]1c2ccccc2C[C@H]1NC(=O)c1cc2sc(Cl)c(Cl)c2[nH]1	7.23	55	
O=C(O)C[C@H]1c2ccccc2C[C@@H]1NC(=O)c1cc2sc(Cl)c(Cl)c2[nH]1	5.82		
O=C(O)CC[C@@H]1c2ccccc2C[C@H]1NC(=O)c1cc2sc(Cl)c(Cl)c2[nH]1	7.25	80	
O=C(O)C[C@@H]1c2ccccc2C[C@H]1NC(=O)c1cc2cc(Cl)cc(F)c2[nH]1	7.28	41	
O=C(O)CO[C@@H]1c2ccccc2C[C@H]1NC(=O)c1cc2sc(Cl)c(Cl)c2[nH]1	7.52	5	
O=C(O)C[C@H]1c2ccccc2C[C@@H]1NC(=O)c1cc2cc(Cl)sc2[nH]1	5.92		
O=C(O)CCCS(=O)(=O)C[C@@H]1c2ccccc2C[C@H]1NC(=O)c1cc2sc(Cl)c(Cl)c2[nH]1	7.38	2	fraction unbound (Rattus norvegicus [10]): 0.3%
O=C(O)C[C@@H]1c2ccccc2C[C@H]1NC(=O)c1cc2cc(F)ccc2[nH]1		88	
